Measured values: ChEMBL document CHEMBL1255419, “Pharmacokinetic-pharmacodynamic assessment of faropenem in a lethal murine Bacillus anthracis inhalation postexposure prophylaxis model” (Antimicrob Agents Chemother, 2010)
In brackets after ≈: the same amount, converted by molar mass. Activity calls are given as the source filed them. The rule behind the calls is not given here.

How the values were obtained:
Bacillus anthracis [1] = assay: microbe, parasite or virus in culture; type: functional
Bacillus anthracis [2] = assay: microbe, parasite or virus in culture; type: functional; remark: listed apart in the source
Bacillus anthracis [3] = assay: microbe, parasite or virus in culture; type: functional; remark: listed apart in the source
Bacillus anthracis [4] = assay: microbe, parasite or virus in culture; type: functional; remark: listed apart in the source
Bacillus anthracis [5] = assay: microbe, parasite or virus in culture; type: functional; remark: listed apart in the source
Bacillus anthracis [6] = assay: microbe, parasite or virus in culture; type: functional; remark: listed apart in the source
Bacillus anthracis [7] = assay: microbe, parasite or virus in culture; type: functional; remark: listed apart in the source
Bacillus anthracis [8] = assay: microbe, parasite or virus in culture; type: functional; remark: listed apart in the source
Bacillus anthracis [9] = assay: microbe, parasite or virus in culture; type: functional; remark: listed apart in the source
Bacillus anthracis [10] = assay: microbe, parasite or virus in culture; type: functional; remark: listed apart in the source
Bacillus anthracis [11] = assay: microbe, parasite or virus in culture; type: functional; remark: listed apart in the source
Bacillus anthracis [12] = assay: microbe, parasite or virus in culture; type: functional; remark: listed apart in the source
Bacillus anthracis [13] = assay: microbe, parasite or virus in culture; type: functional; remark: listed apart in the source
Bacillus anthracis [14] = assay: microbe, parasite or virus in culture; type: functional; remark: listed apart in the source
Bacillus anthracis [15] = assay: microbe, parasite or virus in culture; type: functional; remark: listed apart in the source
Bacillus anthracis [16] = assay: microbe, parasite or virus in culture; type: functional; remark: listed apart in the source
Bacillus anthracis [17] = assay: microbe, parasite or virus in culture; type: functional; remark: listed apart in the source
Bacillus anthracis [18] = assay: microbe, parasite or virus in culture; type: functional; remark: listed apart in the source
Bacillus anthracis [19] = assay: microbe, parasite or virus in culture; type: functional; remark: listed apart in the source
Bacillus anthracis [20] = assay: microbe, parasite or virus in culture; type: functional; remark: listed apart in the source
Bacillus anthracis [21] = assay: microbe, parasite or virus in culture; type: functional; remark: listed apart in the source
Bacillus anthracis [22] = assay: microbe, parasite or virus in culture; type: functional; remark: listed apart in the source
Bacillus anthracis [23] = assay: microbe, parasite or virus in culture; type: functional; remark: listed apart in the source
Bacillus anthracis [24] = assay: microbe, parasite or virus in culture; type: functional; remark: listed apart in the source
Bacillus anthracis [25] = assay: microbe, parasite or virus in culture; type: functional; remark: listed apart in the source
Bacillus anthracis [26] = assay: microbe, parasite or virus in culture; type: functional; remark: listed apart in the source
Bacillus anthracis [27] = assay: microbe, parasite or virus in culture; type: functional; remark: listed apart in the source
Bacillus anthracis [28] = assay: Antibacterial activity against beta-lactamase Bla1 and Bla2-producing Bacillus anthracis Sterne by broth microdilution method; type: functional
Bacillus anthracis [29] = assay: microbe, parasite or virus in culture; type: functional; remark: listed apart in the source
Bacillus anthracis [30] = conditions: Ames, 30 mg/kg
Bacillus anthracis [31] = assay: animal or person; conditions: Ames, in Mus musculus, ip

Row | Structure (SMILES) | MIC (Bacillus anthracis [1]) [µg/mL] | MIC (Bacillus anthracis [2]) [µg/mL] | MIC (Bacillus anthracis [4]) [µg/mL] | MIC (Bacillus anthracis [5]) [µg/mL] | MIC (Bacillus anthracis [6]) [µg/mL] | MIC (Bacillus anthracis [7]) [µg/mL] | MIC (Bacillus anthracis [8]) [µg/mL] | MIC (Bacillus anthracis [9]) [µg/mL] | MIC (Bacillus anthracis [10]) [µg/mL] | MIC (Bacillus anthracis [11]) [µg/mL] | MIC (Bacillus anthracis [12]) [µg/mL] | MIC (Bacillus anthracis [13]) [µg/mL] | MIC (Bacillus anthracis [14]) [µg/mL] | MIC (Bacillus anthracis [15]) [µg/mL] | MIC (Bacillus anthracis [16]) [µg/mL] | MIC (Bacillus anthracis [17]) [µg/mL] | MIC (Bacillus anthracis [18]) [µg/mL] | MIC (Bacillus anthracis [19]) [µg/mL] | MIC (Bacillus anthracis [20]) [µg/mL] | MIC (Bacillus anthracis [21]) [µg/mL] | also measured
1 | CC[C@H]1OC(=O)[C@H](C)[C@@H](O[C@H]2C[C@@](C)(OC)[C@@H](O)[C@H](C)O2)[C@H](C)[C@@H](O[C@@H]2O[C@H](C)C[C@H](N(C)C)[C@H]2O)[C@](C)(O)C[C@@H](C)CN(C)[C@H](C)[C@@H](O)[C@]1(C)O [AZITHROMYCIN] | 4 (≈ 5.34 µM) | 4 (≈ 5.34 µM) | 4 (≈ 5.34 µM) | 2 (≈ 2.67 µM) | 2 (≈ 2.67 µM) | 4 (≈ 5.34 µM) | 4 (≈ 5.34 µM) | 2 (≈ 2.67 µM) | 4 (≈ 5.34 µM) | 4 (≈ 5.34 µM) | 4 (≈ 5.34 µM) | 4 (≈ 5.34 µM) | 4 (≈ 5.34 µM) | 2 (≈ 2.67 µM) | 4 (≈ 5.34 µM) | 4 (≈ 5.34 µM) | 2 (≈ 2.67 µM) | 4 (≈ 5.34 µM) | 4 (≈ 5.34 µM) | 1 (≈ 1.34 µM) | MIC (Bacillus anthracis [3]): 4 µg/mL (≈ 5.34 µM); MIC (Bacillus anthracis [22]): 4 µg/mL (≈ 5.34 µM); MIC (Bacillus anthracis [23]): 2 µg/mL (≈ 2.67 µM); MIC (Bacillus anthracis [24]): 4 µg/mL (≈ 5.34 µM); MIC (Bacillus anthracis [25]): 2 µg/mL (≈ 2.67 µM); MIC (Bacillus anthracis [26]): 4 µg/mL (≈ 5.34 µM); MIC (Bacillus anthracis [27]): 2 µg/mL (≈ 2.67 µM); MIC (Bacillus anthracis [28]): 2 µg/mL (≈ 2.67 µM); MIC (Bacillus anthracis [29]): 4 µg/mL (≈ 5.34 µM)
2 | O=C(O)c1cn(C2CC2)c2cc(N3CCNCC3)c(F)cc2c1=O [CIPROFLOXACIN] | ≤ 0.06 | 0.12 (≈ 0.362 µM) | ≤ 0.06 | ≤ 0.06 | ≤ 0.06 | ≤ 0.06 | ≤ 0.06 | 0.12 (≈ 0.362 µM) | ≤ 0.06 | 0.12 (≈ 0.362 µM) | 0.12 (≈ 0.362 µM) | ≤ 0.06 | 0.12 (≈ 0.362 µM) | ≤ 0.06 | 0.12 (≈ 0.362 µM) | ≤ 0.06 | ≤ 0.06 | ≤ 0.06 | 0.25 (≈ 0.754 µM) | 0.25 (≈ 0.754 µM) | inhibition (Bacillus anthracis [30]): Active; MIC (Bacillus anthracis [22]): 1 µg/mL (≈ 3.02 µM); MIC (Bacillus anthracis [23]): 0.12 µg/mL (≈ 0.362 µM); MIC (Bacillus anthracis [24]): 0.12 µg/mL (≈ 0.362 µM); MIC (Bacillus anthracis [25]): ≤ 0.06 µg/mL; survival at 60 mg/kg (Bacillus anthracis [31]): 90%; MIC (Bacillus anthracis [26]): 0.12 µg/mL (≈ 0.362 µM); MIC (Bacillus anthracis [27]): ≤ 0.06 µg/mL; MIC (Bacillus anthracis [28]): ≤ 0.06 µg/mL; MIC (Bacillus anthracis [29]): 0.25 µg/mL (≈ 0.754 µM)
3 | C[C@H]1c2cccc(O)c2C(=O)C2=C(O)[C@]3(O)C(=O)C(C(N)=O)=C(O)[C@@H](N(C)C)[C@@H]3[C@@H](O)[C@@H]21.O [DOXYCYCLINE] | ≤ 0.06 | ≤ 0.06 | ≤ 0.06 | ≤ 0.06 | ≤ 0.06 | ≤ 0.06 | ≤ 0.06 | ≤ 0.06 | ≤ 0.06 | ≤ 0.06 | ≤ 0.06 | ≤ 0.06 | ≤ 0.06 | ≤ 0.06 | ≤ 0.06 | ≤ 0.06 | ≤ 0.06 | ≤ 0.06 | 0.25 | ≤ 0.06 | MIC (Bacillus anthracis [3]): ≤ 0.06 µg/mL; MIC (Bacillus anthracis [22]): ≤ 0.06 µg/mL; MIC (Bacillus anthracis [23]): ≤ 0.06 µg/mL; MIC (Bacillus anthracis [24]): ≤ 0.06 µg/mL; MIC (Bacillus anthracis [25]): ≤ 0.06 µg/mL; MIC (Bacillus anthracis [26]): ≤ 0.06 µg/mL; MIC (Bacillus anthracis [27]): ≤ 0.06 µg/mL; MIC (Bacillus anthracis [28]): ≤ 0.06 µg/mL; MIC (Bacillus anthracis [29]): ≤ 0.06 µg/mL
4 | C[C@@H](O)[C@H]1C(=O)N2C(C(=O)O)=C(S[C@@H]3CN[C@H](C(=O)N(C)C)C3)[C@H](C)[C@H]12 [MEROPENEM] | 0.12 (≈ 0.313 µM) | 0.12 (≈ 0.313 µM) | 0.12 (≈ 0.313 µM) | < 0.06 | 0.06 (≈ 0.156 µM) | 0.12 (≈ 0.313 µM) | 32 (≈ 83.4 µM) | 0.12 (≈ 0.313 µM) | 0.25 (≈ 0.652 µM) | 0.25 (≈ 0.652 µM) | 0.12 (≈ 0.313 µM) | 0.12 (≈ 0.313 µM) | 0.12 (≈ 0.313 µM) | 0.12 (≈ 0.313 µM) | 0.12 (≈ 0.313 µM) | 0.12 (≈ 0.313 µM) | 0.12 (≈ 0.313 µM) | 8 (≈ 20.9 µM) | 0.25 (≈ 0.652 µM) | ≤ 0.06 | MIC (Bacillus anthracis [3]): 0.12 µg/mL (≈ 0.313 µM); MIC (Bacillus anthracis [22]): 0.25 µg/mL (≈ 0.652 µM); MIC (Bacillus anthracis [23]): 0.25 µg/mL (≈ 0.652 µM); MIC (Bacillus anthracis [24]): 0.12 µg/mL (≈ 0.313 µM); MIC (Bacillus anthracis [25]): 4 µg/mL (≈ 10.4 µM); MIC (Bacillus anthracis [26]): 0.25 µg/mL (≈ 0.652 µM); MIC (Bacillus anthracis [27]): 0.5 µg/mL (≈ 1.3 µM); MIC (Bacillus anthracis [28]): ≤ 0.06 µg/mL; MIC (Bacillus anthracis [29]): 0.25 µg/mL (≈ 0.652 µM)
5 | CC1(C)S[C@@H]2[C@H](NC(=O)Cc3ccccc3)C(=O)N2[C@H]1C(=O)O [PENICILLIN G] | 2 (≈ 5.98 µM) | 1 (≈ 2.99 µM) | 2 (≈ 5.98 µM) | 1 (≈ 2.99 µM) | 4 (≈ 12 µM) | 2 (≈ 5.98 µM) | 32 (≈ 95.7 µM) | 4 (≈ 12 µM) | 8 (≈ 23.9 µM) | 1 (≈ 2.99 µM) | 1 (≈ 2.99 µM) | 4 (≈ 12 µM) | 1 (≈ 2.99 µM) | 4 (≈ 12 µM) | 1 (≈ 2.99 µM) | 2 (≈ 5.98 µM) | 8 (≈ 23.9 µM) | 2 (≈ 5.98 µM) | 2 (≈ 5.98 µM) | 1 (≈ 2.99 µM) | MIC (Bacillus anthracis [3]): 2 µg/mL (≈ 5.98 µM); MIC (Bacillus anthracis [22]): 2 µg/mL (≈ 5.98 µM); MIC (Bacillus anthracis [23]): 4 µg/mL (≈ 12 µM); MIC (Bacillus anthracis [24]): 2 µg/mL (≈ 5.98 µM); MIC (Bacillus anthracis [25]): 8 µg/mL (≈ 23.9 µM); MIC (Bacillus anthracis [26]): 2 µg/mL (≈ 5.98 µM); MIC (Bacillus anthracis [27]): 2 µg/mL (≈ 5.98 µM); MIC (Bacillus anthracis [28]): 4 µg/mL (≈ 12 µM); MIC (Bacillus anthracis [29]): 4 µg/mL (≈ 12 µM)
6 | CN(C)[C@@H]1C(O)=C(C(N)=O)C(=O)[C@@]2(O)C(O)=C3C(=O)c4c(O)cccc4[C@@](C)(O)[C@H]3C[C@@H]12 [TETRACYCLINE] | ≤ 0.06 | ≤ 0.06 | ≤ 0.06 | ≤ 0.06 | ≤ 0.06 | ≤ 0.06 | ≤ 0.06 | ≤ 0.06 | ≤ 0.06 | ≤ 0.06 | ≤ 0.06 | ≤ 0.06 | ≤ 0.06 | ≤ 0.06 | ≤ 0.06 | ≤ 0.06 | ≤ 0.06 | ≤ 0.06 | ≤ 0.06 | ≤ 0.06 | MIC (Bacillus anthracis [3]): ≤ 0.06 µg/mL; MIC (Bacillus anthracis [22]): ≤ 0.06 µg/mL; MIC (Bacillus anthracis [23]): ≤ 0.06 µg/mL; MIC (Bacillus anthracis [24]): ≤ 0.06 µg/mL; MIC (Bacillus anthracis [25]): ≤ 0.06 µg/mL; MIC (Bacillus anthracis [26]): ≤ 0.06 µg/mL; MIC (Bacillus anthracis [27]): ≤ 0.06 µg/mL; MIC (Bacillus anthracis [28]): ≤ 0.06 µg/mL; MIC (Bacillus anthracis [29]): ≤ 0.06 µg/mL
